From patent US20110230430A1, “SAPONIN EXTRACT FROM SAPONARIA SPP. AND USES THEREOF” (NATIONAL RESEARCH COUNCIL OF CANADA, priority 2008, published 2011)

Legend:
Assay type in all cases: cell-based, human
CRL-2522 cells [1] = test: Dual Sensor: MitoCasp Assay in CRL-2522 normal fibroblast cells; settings: for Cells with caspase 3/7 activity / Cells with decreased mitochondrial membrane potential / Effect on apoptosis (in words) / Cells with Caspase 3/7 activity and decreased mitochondrial membrane potential vs untreated (in words): CRL-2522 cells; for Apoptosis in non-cancerous cell line (summary in words): fibroblast cell line CRL-2522, summary of the Examples
From the text: Techniques to assay enzymatic and signaling processes involved in apoptosis have been developed as standard protocols. One example of an early step in apoptosis, is the release of cytochrome C from mitochondria and the activation of caspase-3. Induction of the caspases (a series of cytosolic proteases) is one of the most consistently observed features of apoptosis. Caspases are a family of proteolytic enzymes that transmit the apoptotic signal using a proteolytic cascade. […] Caspases 3 and 7 are effector caspases, central to the caspase cascade pathways. In particular, caspase-3 plays a central role in the process. When caspases are activated, they cleave target proteins; one of the most important of these is poly-(ADP-ribose) polymerase (PARP), which is a protein located in the nucleus. Therefore, assays detecting release of cytochrome C, detecting caspase-3 activity and detecting PARP degradation are effective determinants of apoptosis. The loss of mitochondrial membrane potential is known to occur during apoptosis. To analyze mitochondrial membrane potential, a cationic dye may be used which accumulates in the mitochondria of healthy cells. Collapse of the mitochondrial membrane potential during apoptosis prevents the dye from accumulating in the mitochondria resulting in a decrease in fluorescent intensity that can be detected with flow cytometry. Dual Sensor: MitoCasp™ (Cell Technology) used herein in the Examples is an assay that measures caspase 3/7 activity and cells with decreased mitochondrial membrane potential. In this assay, caspase 3/7 activity is detected using a cell permeable carboxyfluorescein labeled caspase inhibitor, which binds covalently to active caspases 3 and 7. Cells that contain bound inhibitor are detected by an increase in fluorescence when samples are analyzed by flow cytometry.
Following centrifugation at 500×g for 5 min, cell pellets were resuspended in PBS at 3.3×10^6 cells/mL. 300 μL cell suspension was mixed with 10 μL each of 30X Mitochondria Membrane Potential Dye and 30X Caspase 3/7 detection reagent. Following incubation for 60 min under normal growth conditions, cells were washed twice with 1× wash buffer and resuspended in 0.5 mL 1× wash buffer. Samples were analyzed by flow cytometry measuring the fluorescence emissions from 515 nm to 530 nm for caspase detection, and 574 nm to 600 nm for mitochondrial membrane potential detection.
CRL-2522 cells, acquired from ATCC, (American Type Culture Collection) are normal fibroblast cells that originated from human foreskin. CRL-2522 cells were maintained in RPMI 1640 medium (Gibco) supplemented with 10% fetal bovine serum (Cansera), 100 U/mL penicillin, 100 μg/mL streptomycin and 0.25 μg/mL amphotericin B. Cultures were maintained in medium at 37° C. with 5% CO2 and 100% relative humidity. […]

PC-3 cells = test: Vybrant Apoptosis Assay Kit #2 in PC-3 cells
From the text: (§1) Another apoptotic assay is the Annexin-V detection of extracellular phosphatidlyserine (PS). Normally, phosphatidylserine is localized on the inner membrane of the plasmalemma. However, during the early stages of apoptosis, externalization of PS takes place. Annexin-V is a calcium binding protein which binds to PS and can be observed with annexin-V-FITC staining by flow cytometry (Martin, et al., 1995). Alexa Fluor® 488-labeled Annexin V, which has a high affinity for PS, is used to detect apoptotic cells by binding to PS on the outer surface of the cell. Propidium iodide staining is used concurrently to detect dead cells. When cells are analyzed by flow cytometry apoptotic cells show Annexin V staining, late apoptotic cells show PI and Annexin V staining, and dead cells show only PI staining. The Vybrant® Apoptosis Assay Kit #2 (Molecular Probes™) used herein in the Examples is an assay that measures Annexin-V positive cells.
PC-3 cells (ATCC #CRL-1435) were derived from a prostate adenocarcinoma (Kaighn et al., 1979). They were maintained in RPMI 1640 medium (Gibco) supplemented with 10% fetal bovine serum (Cansera), 100 U/mL penicillin, and 100 μg/mL streptomycin and 0.25 μg/mL amphotericin B. Cultures were maintained in medium at 37° C. with 5% CO2 and 100% relative humidity.
PC-3 cells were seeded in tissue culture flasks with regular growth medium and maintained under normal conditions. […] Following incubation under normal growth conditions for the specified time, cells were washed once with cold phosphate-buffered saline (PBS) (137 mM NaCl, 2.7 mM KCl, 4.3 mM Na2HPO4.7H2O, 1.4 mM KH2PO4) and harvested as previously described. Assays were carried out according to instructions given in kits. All Flow Cytometry was performed using a Coulter Epics XL (Beckman).

MDA-MB-231 cells = test: Vybrant Apoptosis Assay Kit #2 in MDA-MB-231 cells
From the text: as §1
The MDA-MB-231 cell line (ATCC #HTB-26) was derived from the pleural effusion of a patient with a breast adenocarcinoma (Cailleau et al., 1974). The cells were maintained in RPMI 1640 (Gibco) supplemented with 10% fetal bovine serum (Camera), 100 U/mL penicillin, 100 μg/mL streptomycin and 0.25 μg/mL amphotericin B. Cultures were maintained in medium at 37° C. with 5% CO2 and 100% relative humidity.
MDA-MB-231 cells were treated with PC1448 and assayed for apoptosis as previously described for PC-3 cells.

CRL-2522 cells [2] = test: Vybrant Apoptosis Assay Kit #2 in CRL-2522 cells
From the text: as §1
CRL-2522 cells, acquired from ATCC, (American Type Culture Collection) are normal fibroblast cells that originated from human foreskin. CRL-2522 cells were maintained in RPMI 1640 medium (Gibco) supplemented with 10% fetal bovine serum (Cansera), 100 U/mL penicillin, 100 μg/mL streptomycin and 0.25 μg/mL amphotericin B. Cultures were maintained in medium at 37° C. with 5% CO2 and 100% relative humidity.
CRL-2522 cells were treated with PC1448 and assayed for apoptosis as described above for PC-3 cells.

Segetoside I [PC1464]
Cells with caspase 3/7 activity (CRL-2522 cells [1]; 1.25 μM PC1464, 36 hr): 1.7%
Cells with decreased mitochondrial membrane potential (CRL-2522 cells [1]; 1.25 μM PC1464, 36 hr): 1.7%
Cells with caspase 3/7 activity (CRL-2522 cells [1]; 2.5 μM PC1464, 36 hr): 3.2%
Cells with decreased mitochondrial membrane potential (CRL-2522 cells [1]; 2.5 μM PC1464, 36 hr): 1.4%
Cells with caspase 3/7 activity (CRL-2522 cells [1]; 5.0 μM PC1464, 36 hr): 14.4%
Cells with decreased mitochondrial membrane potential (CRL-2522 cells [1]; 5.0 μM PC1464, 36 hr): 1.3%
Effect on apoptosis (in words) (CRL-2522 cells [1]; 7 μM PC1464, 10-30 hr): minimal effect
Cells with caspase 3/7 activity (CRL-2522 cells [1]; 7 μM PC1464, 10 hr): 3.2%
Cells with decreased mitochondrial membrane potential (CRL-2522 cells [1]; 7 μM PC1464, 10 hr): 4.4%
Cells with caspase 3/7 activity (CRL-2522 cells [1]; 7 μM PC1464, 20 hr): 11.7%
Cells with decreased mitochondrial membrane potential (CRL-2522 cells [1]; 7 μM PC1464, 20 hr): 4.4%
Cells with caspase 3/7 activity (CRL-2522 cells [1]; 7 μM PC1464, 30 hr): 16.9%
Cells with decreased mitochondrial membrane potential (CRL-2522 cells [1]; 7 μM PC1464, 30 hr): 5.1%
Cells with caspase 3/7 activity (CRL-2522 cells [1]; 10.0 μM PC1464, 36 hr): 19.9%
Cells with decreased mitochondrial membrane potential (CRL-2522 cells [1]; 10.0 μM PC1464, 36 hr): 2.2%
Cells with Caspase 3/7 activity and decreased mitochondrial membrane potential vs untreated (in words) (CRL-2522 cells [1]; PC1464 10.0-1.25 μM, 36 hours): slight increase
Apoptosis in non-cancerous cell line (summary in words) (CRL-2522 cells [1]): no or little apoptosis
Annexin-V positive cells (PC-3 cells; 7 μM PC1464, 10 hr): 21.0%
Annexin-V positive cells (PC-3 cells; 7 μM PC1464, 20 hr): 30.9%
Annexin-V positive cells (PC-3 cells; 7 μM PC1464, 30 hr): 44.7%
Increase in Annexin V positive cells vs untreated (PC-3 cells; 7 μM or 14 μM PC1464, 30 hr): three to six fold
Annexin-V positive cells (PC-3 cells; 14 μM PC1464, 10 hr): 11.5%
Annexin-V positive cells (PC-3 cells; 14 μM PC1464, 20 hr): 28.9%
Annexin-V positive cells (PC-3 cells; 14 μM PC1464, 30 hr): 49.4%
Annexin-V positive cells (MDA-MB-231 cells; 7 μM PC1464, 12 hr): 28.8%
Annexin-V positive cells (MDA-MB-231 cells; 7 μM PC1464, 24 hr): 39.7%
Increase in Annexin V positive cells vs untreated (MDA-MB-231 cells; 7 μM PC1464, 36 hour): 3 fold
Annexin-V positive cells (MDA-MB-231 cells; 7 μM PC1464, 36 hr): 49.3%
Effect on Annexin V positive cells (in words) (CRL-2522 cells [2]; 7 μM PC1464, 10-30 hr): little effect
Annexin-V positive cells (CRL-2522 cells [2]; 7 μM PC1464, 10 hr): 6.0%
Annexin-V positive cells (CRL-2522 cells [2]; 7 μM PC1464, 20 hr): 8.4%
Annexin-V positive cells (CRL-2522 cells [2]; 7 μM PC1464, 30 hr): 10.2%

Segetoside H [PC1448]
Cells with caspase 3/7 activity (CRL-2522 cells [1]; 2.5 μM PC1448, 37 hr): 1.7%
Cells with decreased mitochondrial membrane potential (CRL-2522 cells [1]; 2.5 μM PC1448, 37 hr): 5.6%
Cells with caspase 3/7 activity (CRL-2522 cells [1]; 5.0 μM PC1448, 37 hr): 4.0%
Cells with decreased mitochondrial membrane potential (CRL-2522 cells [1]; 5.0 μM PC1448, 37 hr): 5.0%
Cells with caspase 3/7 activity (CRL-2522 cells [1]; 10.0 μM PC1448, 37 hr): 21.9%
Cells with decreased mitochondrial membrane potential (CRL-2522 cells [1]; 10.0 μM PC1448, 37 hr): 4.6%
Effect on apoptosis (in words) (CRL-2522 cells [1]; 14 μM PC1448, 10-30 hr): no significant effect on apoptosis
Cells with caspase 3/7 activity (CRL-2522 cells [1]; 14 μM PC1448, 10 hr): 3.7%
Cells with decreased mitochondrial membrane potential (CRL-2522 cells [1]; 14 μM PC1448, 10 hr): 1.4%
Cells with caspase 3/7 activity (CRL-2522 cells [1]; 14 μM PC1448, 20 hr): 5.5%
Cells with decreased mitochondrial membrane potential (CRL-2522 cells [1]; 14 μM PC1448, 20 hr): 1.4%
Cells with caspase 3/7 activity (CRL-2522 cells [1]; 14 μM PC1448, 30 hr): 32.8%
Cells with decreased mitochondrial membrane potential (CRL-2522 cells [1]; 14 μM PC1448, 30 hr): 0.8%
Cells with caspase 3/7 activity (CRL-2522 cells [1]; 15.0 μM PC1448, 37 hr): 9.4%
Cells with decreased mitochondrial membrane potential (CRL-2522 cells [1]; 15.0 μM PC1448, 37 hr): 18.5%
Cells with Caspase 3/7 activity and decreased mitochondrial membrane potential vs untreated (in words) (CRL-2522 cells [1]; PC1448 15.0-2.5 μM, 37 hours): variable increase
Apoptosis in non-cancerous cell line (summary in words) (CRL-2522 cells [1]): no or little apoptosis
Annexin-V positive cells (PC-3 cells; 14 μM PC1448, 06 hr): 12.4%
Annexin-V positive cells (PC-3 cells; 14 μM PC1448, 16 hr): 28.3%
Annexin-V positive cells (PC-3 cells; 14 μM PC1448, 24 hr): 34.7%
Increase in Annexin V positive cells vs untreated (PC-3 cells; 14 μM PC1448, 24 hr): three fold
Increase in Annexin V positive cells vs untreated (MDA-MB-231 cells; 14 μM PC1448, 12 hours): 2.7 fold
Annexin-V positive cells (MDA-MB-231 cells; 14 μM PC1448, 12 hr): 46.3%
Annexin-V positive cells (MDA-MB-231 cells; 14 μM PC1448, 24 hr): 37.9%
Annexin-V positive cells (MDA-MB-231 cells; 14 μM PC1448, 48 hr): 37.9%
Change in number of cells showing Annexin V staining (in words) (CRL-2522 cells [2]; 14 μM PC1448, 10-40 hr): No meaningful changes
Annexin-V positive cells (CRL-2522 cells [2]; 14 μM PC1448, 10 hr): 17.2%
Annexin-V positive cells (CRL-2522 cells [2]; 14 μM PC1448, 20 hr): 9.3%
Annexin-V positive cells (CRL-2522 cells [2]; 14 μM PC1448, 40 hr): 18.2%
